Entries after “also recorded” stand apart in the source; their conditions may differ.
Assay: Phase 1/2 clinical study: safety, treatment-emergent adverse events
Format: in vivo
Protocol: This study includes monotherapy as well as combination treatment parts. The monotherapy part includes Phase 1 dose escalation and dose expansion as well as Phase 2. […] Phase 1 dose escalation will proceed prior to start of Phase 1b or Phase 2. Once a recommended Phase 2 dose (RP2D) is identified in Phase 1, enrollment can commence to the Phase 1b combination therapies and Phase 2 monotherapy cohorts.
Dose escalation will follow a 3+3 design starting with a 25 mg QD dose (followed by 50 mg QD (dose level cohort 2), 100 mg QD (dose level cohort 3), 150 mg QD (dose level cohort 4), 200 mg QD (dose level cohort 5), 250 mg QD (dose level cohort 6), and 300 mg QD (dose level cohort 7)). Cycle length will be 28 days.
Any toxicity, regardless of the NCI CTCAE v.5 grade, resulting in discontinuation, does reduction or considered a DLT unless the SRC determines the toxicity if clearly unrelated to study drug (i.e., related to the patient's underlying disease other medical condition or concomitant medications).

Structure (SMILES): COc1ccc(F)cc1C(=O)NCc1ccc(-c2nn([C@@H](C)C(F)(F)F)c(N)c2C(N)=O)cc1 [BTK-I, (S)-5-amino-3-(4-((5-fluoro-2-methoxybenzamido)methyl)phenyl)-1-(1,1,1-trifluoropropane-2-yl)-1H-pyrazole-4-carboxamide]
- Abdominal pain (TEAE) (25 mg QD (N = 5)): 1 (20.0) n(%)
- Anaemia (TEAE) (25 mg QD (N = 5)): 0 (0.0) n(%)
- Back pain (TEAE) (25 mg QD (N = 5)): 0 (0.0) n(%)
- Constipation (TEAE) (25 mg QD (N = 5)): 0 (0.0^ n(%)
- Contusion (TEAE) (25 mg QD (N = 5)): 0 (0.0) n(%)
- Cough (TEAE) (25 mg QD (N = 5)): 3 (60.0) n(%)
- Diarrhoea (TEAE) (25 mg QD (N = 5)): 3 (60.0) n(%)
- Dizziness (TEAE) (25 mg QD (N = 5)): 2 (40.0) n(%)
- Dyspnoea (TEAE) (25 mg QD (N = 5)): 0 (0.0) n(%)
- Fatigue (TEAE) (25 mg QD (N = 5)): 3 (60.0) n(%)
- Headache (TEAE) (25 mg QD (N = 5)): 2 (40.0) n(%)
- Nausea (TEAE) (25 mg QD (N = 5)): 2 (40.0) n(%)
- Neutropenia (TEAE) (25 mg QD (N = 5)): 0 (0.0) n(%)
- Neutrophil count decreased (TEAE) (25 mg QD (N = 5)): 1 (20.0) n(%)
- Oedema peripheral (TEAE) (25 mg QD (N = 5)): 1 (20.0) n(%)
- Rash maculopapular (TEAE) (25 mg QD (N = 5)): 0 (0.0) n(%)
- Subjects with Any TEAEs (25 mg QD (N = 5)): 5 (100.0) n(%)
- Upper respiratory tract infection (TEAE) (25 mg QD (N = 5)): 1 (20.0) n(%)
- dose limiting toxicities (25 mg to 300 mg QD): no dose limiting toxicities or dose reductions; also recorded: DLTS have not been observed
- Abdominal pain (TEAE) (50 mg QD (N = 6)): 0 (0.0) n(%)
- Anaemia (TEAE) (50 mg QD (N = 6)): 0 (0.0) n(%)
- Back pain (TEAE) (50 mg QD (N = 6)): 0 (0.0) n(%)
- Constipation (TEAE) (50 mg QD (N = 6)): 0 (0.0) n(%)
- Contusion (TEAE) (50 mg QD (N = 6)): 2 (33.3) n(%)
- Cough (TEAE) (50 mg QD (N = 6)): 2 (33.3) n(%)
- Diarrhoea (TEAE) (50 mg QD (N = 6)): 1 (16.7) n(%)
- Dizziness (TEAE) (50 mg QD (N = 6)): 0 (0.0) n(%)
- Dyspnoea (TEAE) (50 mg QD (N = 6)): 0 (0.0) n(%)
- Fatigue (TEAE) (50 mg QD (N = 6)): 3 (50.0) n(%)
- Headache (TEAE) (50 mg QD (N = 6)): 1 (16.7) n(%)
- Nausea (TEAE) (50 mg QD (N = 6)): 2 (33.3) n(%)
- Neutropenia (TEAE) (50 mg QD (N = 6)): 1 (16.7) n(%)
- Neutrophil count decreased (TEAE) (50 mg QD (N = 6)): 0 (0.0) n(%)
- Oedema peripheral (TEAE) (50 mg QD (N = 6)): 1 (16.7) n(%)
- Pyrexia (TEAE) (50 mg QD (N = 6)): 0 (0.0) n(%)
- Rash maculopapular (TEAE) (50 mg QD (N = 6)): 0 (0.0) n(%)
- Subjects with Any TEAEs (50 mg QD (N = 6)): 6 (100.0) n(%)
- Upper respiratory tract infection (TEAE) (50 mg QD (N = 6)): 3 (50.0) n(%)
- Abdominal pain (TEAE) (100 mg QD (N = 9)): 2 (2.2) n(%)
- Anaemia (TEAE) (100 mg QD (N = 9)): 2 (22.2) n(%)
- Back pain (TEAE) (100 mg QD (N = 9)): 0 (0.0) n(%)
- Constipation (TEAE) (100 mg QD (N = 9)): 0 (0.0) n(%)
- Contusion (TEAE) (100 mg QD (N = 9)): 0 (0.0) n(%)
- Cough (TEAE) (100 mg QD (N = 9)): 0 (0.0) n(%)
- Diarrhoea (TEAE) (100 mg QD (N = 9)): 3 (33.3) n(%)
- Dizziness (TEAE) (100 mg QD (N = 9)): 1 (11.1) n(%)
- Dyspnoea (TEAE) (100 mg QD (N = 9)): 2 (22.2) n(%)
- Fatigue (TEAE) (100 mg QD (N = 9)): 2 (22.2) n(%)
- Headache (TEAE) (100 mg QD (N = 9)): 1 (11.1) n(%)
- Nausea (TEAE) (100 mg QD (N = 9)): 1 (11.1) n(%)
- Neutropenia (TEAE) (100 mg QD (N = 9)): 0 (0.0) n(%)
- Neutrophil count decreased (TEAE) (100 mg QD (N = 9)): 0 (0.0) n(%)
- Oedema peripheral (TEAE) (100 mg QD (N = 9)): 0 (0.0) n(%)
- Pyrexia (TEAE) (100 mg QD (N = 9)): 1 (11.1) n(%)
- Rash maculopapular (TEAE) (100 mg QD (N = 9)): 1 (11.1) n(%)
- Subjects with Any TEAEs (100 mg QD (N = 9)): 8 (88.9) n(%)
- Upper respiratory tract infection (TEAE) (100 mg QD (N = 9)): 1 (11.1) n(%)
- Abdominal pain (TEAE) (150 mg QD (N = 20)): 1 (5.0) n(%)
- Anaemia (TEAE) (150 mg QD (N = 20)): 3 (15.0) n(%)
- Back pain (TEAE) (150 mg QD (N = 20)): 5 (25.0) n(%)
- Constipation (TEAE) (150 mg QD (N = 20)): 5 (25.0) n(%)
- Contusion (TEAE) (150 mg QD (N = 20)): 3 (15.0) n(%)
- Cough (TEAE) (150 mg QD (N = 20)): 3 (15.0) n(%)
- Diarrhoea (TEAE) (150 mg QD (N = 20)): 5 (25.0) n(%)
- Dizziness (TEAE) (150 mg QD (N = 20)): 2 (10.0) n(%)
- Dyspnoea (TEAE) (150 mg QD (N = 20)): 2 (10.0) n(%)
- Fatigue (TEAE) (150 mg QD (N = 20)): 3 (15.0) n(%)
- Headache (TEAE) (150 mg QD (N = 20)): 4 (20.0) n(%)
- Nausea (TEAE) (150 mg QD (N = 20)): 1 (5.0) n(%)
- Neutropenia (TEAE) (150 mg QD (N = 20)): 4 (20.0) n(%)
- Neutrophil count decreased (TEAE) (150 mg QD (N = 20)): 3 (15.0) n(%)
- Oedema peripheral (TEAE) (150 mg QD (N = 20)): 3 (15.0) n(%)
- Pyrexia (TEAE) (150 mg QD (N = 20)): 1 (5.0) n(%)
- Rash maculopapular (TEAE) (150 mg QD (N = 20)): 2 (10.0) n(%)
- Subjects with Any TEAEs (150 mg QD (N = 20)): 20 (100.0) n(%)
- Upper respiratory tract infection (TEAE) (150 mg QD (N = 20)): 7 (35.0) n(%)
- Abdominal pain (TEAE) (200 mg QD (N = 238)): 14 (5.9) n(%)
- Anaemia (TEAE) (200 mg QD (N = 238)): 16 (6.7) n(%)
- Back pain (TEAE) (200 mg QD (N = 238)): 14 (5.9) n(%)
- Constipation (TEAE) (200 mg QD (N = 238)): 14 (5.9) n(%)
- Contusion (TEAE) (200 mg QD (N = 238)): 28 (11.8) n(%)
- Cough (TEAE) (200 mg QD (N = 238)): 15 (6.3) n(%)
- Diarrhoea (TEAE) (200 mg QD (N = 238)): 33 (13.9) n(%)
- Dizziness (TEAE) (200 mg QD (N = 238)): 10 (4.2) n(%)
- Dyspnoea (TEAE) (200 mg QD (N = 238)): 16 (6.7) n(%)
- Fatigue (TEAE) (200 mg QD (N = 238)): 39 (16.4) n(%)
- Headache (TEAE) (200 mg QD (N = 238)): 14 (5.9) n(%)
- Nausea (TEAE) (200 mg QD (N = 238)): 16 (6.7) n(%)
- Neutropenia (TEAE) (200 mg QD (N = 238)): 15 (6.3) n(%)
- Neutrophil count decreased (TEAE) (200 mg QD (N = 238)): 10 (4.2) n(%)
- Oedema peripheral (TEAE) (200 mg QD (N = 238)): 14 (5.9) n(%)
- Pyrexia (TEAE) (200 mg QD (N = 238)): 17 (7.1) n(%)
- Rash maculopapular (TEAE) (200 mg QD (N = 238)): 12 (5.0) n(%)
- Upper respiratory tract infection (TEAE) (200 mg QD (N = 238)): 3 (1.3) n(%)
- Abdominal pain (TEAE) (250 mg QD (N = 25)): 0 (0.0) n(%)
- Anaemia (TEAE) (250 mg QD (N = 25)): 2 (8.0) n(%)
- Back pain (TEAE) (250 mg QD (N = 25)): 3 (2.0) n(%)
- Constipation (TEAE) (250 mg QD (N = 25)): 3 (12.0) n(%)
- Contusion (TEAE) (250 mg QD (N = 25)): 5 (20.0) n(%)
- Cough (TEAE) (250 mg QD (N = 25)): 3 (12.0) n(%)
- Diarrhoea (TEAE) (250 mg QD (N = 25)): 5 (20.0) n(%)
- Dizziness (TEAE) (250 mg QD (N = 25)): 1 (4.0) n(%)
- Dyspnoea (TEAE) (250 mg QD (N = 25)): 2 (8.0) n(%)
- Fatigue (TEAE) (250 mg QD (N = 25)): 10 (40.0) n(%)
- Headache (TEAE) (250 mg QD (N = 25)): 3 (12.0) n(%)
- Nausea (TEAE) (250 mg QD (N = 25)): 5 (20.0) n(%)
- Neutropenia (TEAE) (250 mg QD (N = 25)): 1 (4.0) n(%)
- Oedema peripheral (TEAE) (250 mg QD (N = 25)): 2 (8.0) n(%)
- Pyrexia (TEAE) (250 mg QD (N = 25)): 2 (8.0) n(%)
- Rash maculopapular (TEAE) (250 mg QD (N = 25)): 2 (8.0) n(%)
- Subjects with Any TEAEs (250 mg QD (N = 25)): 25 (100.0) n(%)
- Upper respiratory tract infection (TEAE) (250 mg QD (N = 25)): 6 (24.0) n(%)
- Abdominal pain (TEAE) (Overall (N = 323)): 20 (6.2) n (%)
- Anaemia (TEAE) (Overall (N = 323)): 24 (7.4) n (%)
- Back pain (TEAE) (Overall (N = 323)): 25 (7.7) n (%)
- Constipation (TEAE) (Overall (N = 323)): 25 (7.7) n (%)
- Contusion (TEAE) (Overall (N = 323)): 42 (13.0) n (%)
- Cough (TEAE) (Overall (N = 323)): 29 (9.0) n (%)
- Diarrhoea (TEAE) (Overall (N = 323)): 55 (17.0) n (%)
- Dizziness (TEAE) (Overall (N = 323)): 18 (5.6) n (%)
- Dyspnoea (TEAE) (Overall (N = 323)): 26 (8.0) n (%)
- Fatigue (TEAE) (Overall (N = 323)): 65 (20.1) n (%)
- Headache (TEAE) (Overall (N = 323)): 29 (9.0) n (%)
- Nausea (TEAE) (Overall (N = 323)): 30 (9.3) n (%)
- Neutropenia (TEAE) (Overall (N = 323)): 24 (7.4) n (%)
- Neutrophil count decreased (TEAE) (Overall (N = 323)): 22 (6.8) n (%)
- Oedema peripheral (TEAE) (Overall (N = 323)): 22 (6.8) n (%)
- Pyrexia (TEAE) (Overall (N = 323)): 23 (7.1) n (%)
- Rash maculopapular (TEAE) (Overall (N = 323)): 20 (6.2) n (%)
- Subjects with Any TEAEs (Overall (N = 323)): 264 (81.7) n (%)
- Upper respiratory tract infection (TEAE) (Overall (N = 323)): 23 (7.1) n (%)
- rates of atrial arrhythmias and major bleeding (human, in vivo): low rates
- tolerability in patients (human, in vivo): appeared to be well tolerated
- contusion, treatment emergent adverse event regardless of attribution or grade (n=42 of 323 patients): 13%
- diarrhea, treatment emergent adverse event regardless of attribution or grade (n=55 of 323 patients): 17%
- fatigue, treatment emergent adverse event regardless of attribution or grade (n=65 of 323 patients): 20%
- maximum tolerated dose (MTD) (up to 300 mg QD): lack of an MTD
